{"source": "patent US11400082B2", "about": "“Methods of treating elevated plasma cholesterol” (Montréal Heart Institute, priority 2017, dated 2022)", "key": {"C57BL/6 mice": {"test_system": "C57BL/6 mice", "assay": "Efficacy and safety in hypercholesterolemic animal models, C57BL/6 mice", "assay_type": "in vivo", "description": "(§1) For in vivo proof-of-concept animal studies, wild-type C57BL/6 male mice (˜25 g; obtained from Charles River Laboratories) or Golden Syrian (˜120 g obtained from Envigo++) were housed in the 12 hour light/12 hour dark cycle, temperature and humidity controlled MHI animal facility. […] TD.88137, Envigo) for 14 days. […] Equivalent volume of vehicle containing corresponding formulations were orally administered to mice daily and designated as placebo (vehicle). […] Total cholesterol (catalog no. 439-17501, Wako) was quantified in total plasma and in each 0.3 mL collected fractions or in-line (Lipidomics Core of The Group on Molecular and Cell Biology of Lipids, University of Alberta) according to the manufacturer's instructions. Relative quantitation of AUC of total cholesterol corresponding to non-HDL lipoprotein positive fractions obtained from FPLC profiles are included in Table 3. Serum aspartate aminotransferase (AST) and alanine transaminase (ALT) were measured by the Montreal Heart Institute biochemical clinical chemistry platform according to manufacturer's recommendations."}, "[1]": {"assay": "Cell viability assay (MTT)", "assay_type": "cell-based", "settings": "human; overnight incubation, viability relative to DMSO", "description": "Following incubation, media was replaced and cells incubated for 4 h with 100 μL of phenol red-free DMEM containing 0.5 mg/mL of MTT (3-[4,5-dimethylthiazol-2-yl]-2,5-diphenyltetrazolium bromide; thiazolyl blue; catalog no. M5655, Sigma-Aldrich). Afterwards, media was removed and converted dye solubilized with 100 μL acidic isopropanol (0.06 N) and absorbance measured at a wavelength of 570 nm with background subtraction at 650 nm. Arbitrary units of cell viability of a given example were determined relative to equal volume of DMSO (vehicle) for each concentration used."}, "Golden Syrian": {"test_system": "Golden Syrian", "assay": "Efficacy and safety in hypercholesterolemic animal models, Golden Syrian", "assay_type": "in vivo", "settings": "10 days", "description": "as §1"}, "[2]": {"settings": "C57BL/6, HFD, 40 mpk/d, 10 days, animals out of n"}, "[3]": {"settings": "HFD, 40 mpk/d, animals out of n"}}}
{"molecule": "O=C(NO)c1ncc(COc2ccc(F)cc2)c(CO)c1O", "note": "[Compound 2, 5-(4-fluoro-phenoxymethyl)-3-hydroxy-4-hydroxymethyl-pyridine-2-carboxylic acid hydroxyamide]", "values": [{"measurement": "LDL-C (%) (FPLC TC) (pooled plasma)", "setting": "C57BL/6 mice; C57BL/6, Chow, 25 mpk/d oral gavage, 3 days, n 3", "result": "−31", "unit": "%"}, {"measurement": "LDL-C (%) (FPLC TC) (pooled plasma)", "setting": "C57BL/6 mice; C57BL/6, HFD, 5 mpk/d oral gavage, 10 days, n 4", "result": "−3 ± 8", "unit": "%"}, {"measurement": "LDL-C (%) (FPLC TC) (pooled plasma)", "setting": "C57BL/6 mice; C57BL/6, HFD, 25 mpk/d oral gavage, 10 days, n 4", "result": "−28 ± 8", "unit": "%"}, {"measurement": "LDL-C (%) (FPLC TC) (pooled plasma)", "setting": "C57BL/6 mice; C57BL/6, HFD, 40 mpk/d oral gavage, 10 days, n 4", "result": "−35 ± 2", "unit": "%"}, {"measurement": "ALT (3 × ULN)", "setting": "C57BL/6 mice; [2]", "result": "0/4"}, {"measurement": "AST (3 × ULN)", "setting": "C57BL/6 mice; [2]", "result": "0/4"}, {"measurement": "CC50", "setting": "[1]", "result": 50, "unit": "µM"}, {"measurement": "LDL-C (%) (FPLC TC) (pooled plasma)", "setting": "Golden Syrian; Chow, 40 mpk/d, n 3", "result": "−12", "unit": "%"}, {"measurement": "LDL-C (%) (FPLC TC) (pooled plasma)", "setting": "Golden Syrian; HFD, 5 mpk/d, n 3", "result": "−21 ± 10", "unit": "%"}, {"measurement": "LDL-C (%) (FPLC TC) (pooled plasma)", "setting": "Golden Syrian; HFD, 10 mpk/d, n 3", "result": "−15 ± 16", "unit": "%"}, {"measurement": "LDL-C (%) (FPLC TC) (pooled plasma)", "setting": "Golden Syrian; HFD, 20 mpk/d, n 3", "result": "−40 ± 7", "unit": "%"}, {"measurement": "ALT (3 × ULN)", "setting": "Golden Syrian; [3]", "result": "0/3"}, {"measurement": "AST (3 × ULN)", "setting": "Golden Syrian; [3]", "result": "0/3"}, {"measurement": "LDL-C (%) (FPLC TC) (pooled plasma)", "setting": "Golden Syrian; HFD, 40 mpk/d, n 3 (second HFD 40 mpk/d line)", "result": "−26 ± 12", "unit": "%"}, {"measurement": "LDL-C (%) (FPLC TC) (pooled plasma)", "setting": "Golden Syrian; HFD, 40 mpk/d, n 3, value marked (n = 1)", "result": "−47", "unit": "%"}]}
